Data on 2 molecules can be found in US20040072750A1, “Compounds and methods for the modulation of CD154” (priority 2001, published 2004).

Bridge positions count the residues as written; N and C are the ends. Square brackets hold non-standard residues; d marks the D form. Peptide text beside a SMILES is read from it. hArg = N=C(N)NCCCC[C@H](N)C(=O)O; Mpa = O=C(O)CCS

Experiment [1] is described as follows: Plasma inflammatory markers after PCI (ELISA). The format is in vivo, human. The method, then:
Patients (n=45) undergoing PCI were enrolled. The study was approved by the IRB and all patients signed informed consent. Exclusion criteria included higher risk clinical scenarios mandating, according to institutional clinical practice, the use of GP IIb/IIIa antagonists (i.e., acute ST elevation MI or non q-wave MI with CPK elevation, pain at rest with EKG changes <24 hours, visible thrombus, pain refractory to heparin), pre-procedural GP IIb/IIIa inhibitor treatment, restenotic and graft lesions, and standard conditions excluding GP IIb/IIIa inhibitor use.
All patients received aspirin and intravenous heparin (50-70U/kg) monitored by activated clotting time (ACT) during the procedure. Patients were administered either no GP IIb/IIIa inhibitor, eptifibatide (180 μg/kg double bolus followed by 2 μg/kg/min for 16 h), or abciximab (0.25 mg/kg bolus intravenously followed by 0.125 μg/kg/min for 12 h) at the discretion of the primary operator. Platelet function was monitored using PPACK-anticoagulated blood and the Accumetrics RPFA device at baseline and 10 min post-final bolus. Interventionalists were blinded to RPFA results and not permitted to modify GP IIb-IIIa inhibitor dosing. Post-PCI, patients received clopidogrel (300 mg PO) followed by 75 mg daily.
Venous blood samples were collected prior to (t=0) and at 30 minutes, 2 hours, and 24 hours after the angioplasty wire was advanced across the lesion. Blood was collected into 10 mL tubes with either EDTA (for sCD 154 analysis) or PPACK (for all other analyses) anticoagulant, centrifuged at 4° C., and stored at −80° C. until analysis.
Inflammatory markers in plasma samples were quantified by commercially available ELISA for sCD154 (Alexis BioChemical) with modification (12), RANTES, IL6, sICAM-1 (BioSource), and CRP (Alpha Diagnostic International).
Primary endpoint data are presented as mean±SE. Data were log transformed to achieve a normal distribution verified by Kolmogorov-Smirnov test for normality. Statistical comparisons were performed using two-way ANOVA to determine a difference in mean values over time between the 3 groups. Pair-wise comparisons were performed when the ANOVA false-positive rate was ≦5%. A Bonferroni corrective for 3 pair-wise comparisons was applied, in which the p-value of […] was used to signify a false-positive rate of 5%. For ANOVA with a false-positive rate of ≧5%, the pair-wise comparisons were reported to be statistically nonsignificant (NS). Baseline and procedural characteristics data were analyzed with standard one way ANOVA for continuous data in more than 3 groups and a student's t-test for comparison of 2 groups. A Mann-Whitney Rank Sum test was used for nominal data. Statistical significance was assumed if the false positive rate was ≦5%.
For orientation: ELISA stands for enzyme-linked immunosorbent assay.

Another experiment deals with CD154−/− mice. Description: Intravital microscopy thrombosis model of the mouse mesentery (FeCl3-injured arteriole). The class given is in vivo. Conditions: single dose 26 μg/mouse, 5 to 10 minutes before arteriole injury. Here is the method: The role of CD154 in thrombus formation was investigated using a model that compares wild type (WT) mice with CD154−/− mice that have impaired thrombosis. […] It was observed that the occlusion time is approximately twice as long in the CD 154−/− mouse as in wild type, apart from any other treatment effect.
In this example, the recombinant form of the soluble CD154 was infused into the CD154−/− mouse. Thrombus formation was evaluated using the model as described below.
To perform the investigation, the intravital microscopy thrombosis model of the mouse mesentery was used (Denis et al., PNAS, 95:9524-9, (1998)). The interactions of fluorescently-labeled platelets with a FeCl3-injured arteriolar vessel wall (shear rate ˜1300 s^−1) were analyzed. […]
Immediately after infusion of fluorescent platelets into mice of matching genotypes (4- to 5-weeks old C57BL6J and CD154−/−), animals were anesthetized with 2.5% tribromoethanol (0.15 mL/10 g). […] The shear rate (1000 to 1300 s^−1) was calculated using an optical Doppler velocimeter using known methods (see, e.g., Blood, November 2000). […]
Resting blood vessel was recorded for 2 minutes, then Ferric Chloride (30 μl of a 250-mM solution) was superfused, and video recording was resumed for another 40 minutes, or until full occlusion occurred and lasted for more than 10 seconds. […]

As for `N=C(N)NCCCC[C@@H]1NC(=O)CCSSC[C@@H](C(N)=O)NC(=O)[C@@H]2CCCN2C(=O)[C@H](Cc2c[nH]c3ccccc23)NC(=O)[C@H](CC(=O)O)NC(=O)CNC1=O` [eptifibatide] ([Mpa][hArg]GDWPC-NH2; disulfide 1-7), the “rise of sICAM-1 and IL-6 after PCI” value in experiment [1] (2-24 hours after PCI, not statistically significant) is listed as “lowest level of rise”. Further, in experiment [1] (30 minutes, 2 hours, 24 hours versus baseline), the “plasma sCD154 levels after PCI” value was “significantly lower than baseline”. Besides, in experiment [1] (versus baseline), the “plasma RANTES levels after PCI” value was “significant reductions”.

B1: rsCD154: bacterially expressed recombinant human soluble CD154 (108 a.a-261 a.a.), 18-kDa protein (protein)
chain: ENSFEMQKGDQNPQIAAHVISEASSKTTSVLQWAEKGYYTMSNNLVTLENGKQLTVKRQGLYYIYAQVTFCSNREASSQAPFIASLCLKSPGRFERILLRAANTHSSAKPCGQQSIHLGGVFELQPGASVFVNVTDPSQVSHGTGFTSFGLLKL
In the case of B1, the “thrombotic process (occlusion) in CD154−/− mice” value with CD154−/− mice is “reconstitute a normal thrombotic process”.
